The record followed here is patent US20240199558A1, “2,4,6-TRISUBSTITUTED 1,3,5-TRIAZINES AS MODULATORS OF CX3CR1” (ASTRAZENECA AB, priority 2022, published 2024).

The target of the assay is CX3CR1 (Homo sapiens (Human), UniProt P49238). Nature of the assay: hCX3CR1 [3H]-AZD8797 competitive binding assay (filter). As to conditions: CHO-hCX3CR1 membranes, 2 nM [3H]-AZD8797. The protocol:
hCX3CR1 [^3H]-AZD8797 Competitive Binding Assay (Filter)
CHO-hCX3CR1 membranes (9 μg per well) together with 2 nM [^3H]-AZD8797 and different concentrations of competitor compound were incubated in 25 mM HEPES (pH 7.4), 10 mM MgCl2, 1 mM CaCl2) and 0.5% BSA in a Corning polystyrene flat-bottom 96-well plate. The plate was incubated for 2 h at room temperature before free radioligand was separated from bound by vacuum filtration on to a Multiscreen HTS+HiFlow FB (Millipore) filter plate, using a Biomek FX (Beckman Coulter). The filter plate was washed in ice-cold 25 mM HEPES (pH 7.4), 5 mM MgCl2, 1 mM CaCl2) and 500 mM NaCl and dried at 50° C. for 1 h. Scintillation cocktail, Optiphase Supermix (PerkinElmer) was added to each well and the radioactivity was measured using a MicroBeta Trilux reader (PerkinElmer). The DMSO concentration was held constant at 1%.

SMILES strings stand for the structures.

For orientation: IC50 means the concentration that inhibits the measured activity by half. Read a low IC50 as greater potency in that assay.

Chain of CX3CR1 (P49238 whole entry): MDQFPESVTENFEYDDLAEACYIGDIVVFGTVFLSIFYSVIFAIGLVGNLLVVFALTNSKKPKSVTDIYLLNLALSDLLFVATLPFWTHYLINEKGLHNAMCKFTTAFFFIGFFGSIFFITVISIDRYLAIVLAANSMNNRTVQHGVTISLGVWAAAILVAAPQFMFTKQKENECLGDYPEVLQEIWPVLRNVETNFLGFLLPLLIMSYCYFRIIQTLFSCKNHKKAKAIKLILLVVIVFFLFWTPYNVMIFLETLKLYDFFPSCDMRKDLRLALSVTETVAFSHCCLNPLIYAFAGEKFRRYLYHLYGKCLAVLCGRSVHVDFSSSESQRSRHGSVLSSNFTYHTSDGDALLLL

As to `CC(C)C[C@H](CO)Nc1nc(CC(C)c2ccc(CC#N)cc2)nc(NS(C)(=O)=O)n1` (stereo partly drawn) [Example 55, N-(4-(2-(4-(Cyanomethyl)phenyl)propyl)-6-(((R)-1-hydroxy-4-methylpentan-2-yl)amino)-1,3,5-triazin-2-yl)methanesulfonamide], the IC50 was 0.139 µM. The same measure for `Cc1ccc(C(C)Cc2nc(N[C@@H](CO)CC(C)C)nc(NS(C)(=O)=O)n2)cc1F` (stereo partly drawn) [Example 56, N-(4-(2-(3-Fluoro-4-methylphenyl)propyl)-6-(((R)-1-hydroxy-4-methylpentan-2-yl)amino)-1,3,5-triazin-2-yl)methanesulfonamide]: 0.204 µM; for `CC(C)C[C@H](CO)Nc1nc(CC(C)c2ccc(C3COC3)cc2)nc(NS(C)(=O)=O)n1` (stereo partly drawn) [Example 57, N-(4-(((R)-1-Hydroxy-4-methylpentan-2-yl)amino)-6-(2-(4-(oxetan-3-yl)phenyl)propyl)-1,3,5-triazin-2-yl)methanesulfonamide]: 0.111 µM. The same measure for `CC(C)C[C@H](CO)Nc1nc(CC(C)c2cccc(F)c2)nc(NS(C)(=O)=O)n1` (stereo partly drawn) [Example 58, N-(4-(2-(3-Fluorophenyl)propyl)-6-(((R)-1-hydroxy-4-methylpentan-2-yl)amino)-1,3,5-triazin-2-yl)methanesulfonamide]: 0.105 µM; for `CC(=O)Nc1ccc(C(C)Cc2nc(N[C@@H](CO)CC(C)C)nc(NS(C)(=O)=O)n2)cc1` (stereo partly drawn) [Example 59, N-(4-(1-(4-(((R)-1-Hydroxy-4-methylpentan-2-yl)amino)-6-(methylsulfonamido)-1,3,5-triazin-2-yl)propan-2-yl)phenyl)acetamide]: 0.292 µM; for `CC(C)C[C@H](CO)Nc1nc(CC(C)c2ccc3[nH]ccc3c2)nc(NS(C)(=O)=O)n1` (stereo partly drawn) [Example 60, N-(4-(2-(1H-Indol-5-yl)propyl)-6-(((R)-1-hydroxy-4-methylpentan-2-yl)amino)-1,3,5-triazin-2-yl)methanesulfonamide]: 0.102 µM. The same measure for `CC(C)C[C@H](CO)Nc1nc(CC(C)c2ccc3ncoc3c2)nc(NS(C)(=O)=O)n1` (stereo partly drawn) [Example 61, N-(4-(2-(Benzo[d]oxazol-6-yl)propyl)-6-(((R)-1-hydroxy-4-methylpentan-2-yl)amino)-1,3,5-triazin-2-yl)methanesulfonamide]: 0.076 µM; for `CC(C)C[C@H](CO)Nc1nc(CC(C)c2ccc3ocnc3c2)nc(NS(C)(=O)=O)n1` (stereo partly drawn) [Example 62, N-(4-(2-(Benzo[d]oxazol-5-yl)propyl)-6-(((R)-1-hydroxy-4-methylpentan-2-yl)amino)-1,3,5-triazin-2-yl)methanesulfonamide]: 0.14 µM. With `CC(C)C[C@H](CO)Nc1nc(CC(C)c2ccc(N=S(C)(C)=O)cc2)nc(NS(C)(=O)=O)n1` (stereo partly drawn) [Example 63, N-(4-(2-(4-((Dimethyl(oxo)-λ^6-sulfaneylidene)amino)phenyl)propyl)-6-(((R)-1-hydroxy-4-methylpentan-2-yl)amino)-1,3,5-triazin-2-yl)methanesulfonamide], the IC50 was found to be 0.114 µM. The same measure for `CC(C)C[C@H](CO)Nc1nc(CC(C)c2ccc(-n3ccnn3)cc2)nc(NS(C)(=O)=O)n1` (stereo partly drawn) [Example 64, N-(4-(2-(4-(1H-1,2,3-Triazol-1-yl)phenyl)propyl)-6-(((R)-1-hydroxy-4-methylpentan-2-yl)amino)-1,3,5-triazin-2-yl)methanesulfonamide]: 0.302 µM. With `CC(C)C[C@H](CO)Nc1nc(CC(C)c2ccc(C#N)cc2)nc(NS(C)(=O)=O)n1` (stereo partly drawn) [Example 68, N-(4-(2-(4-Cyanophenyl)propyl)-6-(((R)-1-hydroxy-4-methylpentan-2-yl)amino)-1,3,5-triazin-2-yl)methanesulfonamide], the IC50 was found to be 0.336 µM. Next, `COCc1ccc(C(C)Cc2nc(N[C@@H](CO)CC(C)C)nc(NS(C)(=O)=O)n2)cc1` (stereo partly drawn) [Example 69, N-(4-(((R)-1-Hydroxy-4-methylpentan-2-yl)amino)-6-(2-(4-(methoxymethyl)phenyl)propyl)-1,3,5-triazin-2-yl)methanesulfonamide]: 0.83 µM. Next, `Cc1ccc(C(C)Cc2nc(N[C@@H](CO)CC(C)C)nc(NS(C)(=O)=O)n2)cc1C` (stereo partly drawn) [Example 70, N-(4-(2-(3,4-Dimethylphenyl)propyl)-6-(((R)-1-hydroxy-4-methylpentan-2-yl)amino)-1,3,5-triazin-2-yl)methanesulfonamide]: 0.298 µM. Next, `CC(C)C[C@H](CO)Nc1nc(CC(C)c2ccc(C(C)(F)F)cc2)nc(NS(C)(=O)=O)n1` (stereo partly drawn) [Example 71, N-(4-(2-(4-(1,1-Difluoroethyl)phenyl)propyl)-6-(((R)-1-hydroxy-4-methylpentan-2-yl)amino)-1,3,5-triazin-2-yl)methanesulfonamide]: 0.331 µM; `CC(C)C[C@H](CO)Nc1nc(CC(C)c2cccc(Cl)c2)nc(NS(C)(=O)=O)n1` (stereo partly drawn) [Example 72, N-(4-(2-(3-Chlorophenyl)propyl)-6-(((R)-1-hydroxy-4-methylpentan-2-yl)amino)-1,3,5-triazin-2-yl)methanesulfonamide]: 0.34 µM. `CC(=O)N(C)c1ccc(C(C)Cc2nc(N[C@@H](CO)CC(C)C)nc(NS(C)(=O)=O)n2)cc1` (stereo partly drawn) [Example 73, N-(4-(1-(4-(((R)-1-Hydroxy-4-methylpentan-2-yl)amino)-6-(methylsulfonamido)-1,3,5-triazin-2-yl)propan-2-yl)phenyl)-N-methylacetamide]: the IC50 was found to be 0.633 µM.

As to `CC(C)C[C@H](CO)Nc1nc(CC(C)c2ccc(C(F)(F)F)cc2)nc(NS(C)(=O)=O)n1` (stereo partly drawn) [Example 74, N-(4-(((R)-1-Hydroxy-4-methylpentan-2-yl)amino)-6-(2-(4-(trifluoromethyl)phenyl)propyl)-1,3,5-triazin-2-yl)methanesulfonamide], the IC50 amounted to 0.925 µM.

The compound `COc1cccc(C(C)Cc2nc(N[C@@H](CO)CC(C)C)nc(NS(C)(=O)=O)n2)c1` (stereo partly drawn) [Example 92, N-(4-(((R)-1-Hydroxy-4-methylpentan-2-yl)amino)-6-(2-(3-methoxyphenyl)propyl)-1,3,5-triazin-2-yl)methanesulfonamide] registered an IC50 of 0.112 µM.

As to `CC(C)C[C@H](CO)Nc1nc(CC(C)c2c[nH]c3ncccc23)nc(NS(C)(=O)=O)n1` (stereo partly drawn) [Example 93, N-(4-(2-(1H-Pyrrolo[2,3-b]pyridin-3-yl)propyl)-6-(((R)-1-hydroxy-4-methylpentan-2-yl)amino)-1,3,5-triazin-2-yl)methanesulfonamide], the IC50 stood at 0.209 µM. The compound `Cc1cc(C(C)Cc2nc(N[C@@H](CO)CC(C)C)nc(NS(C)(=O)=O)n2)ccn1` (stereo partly drawn) [Example 94, N-(4-(((R)-1-Hydroxy-4-methylpentan-2-yl)amino)-6-(2-(2-methylpyridin-4-yl)propyl)-1,3,5-triazin-2-yl)methanesulfonamide] gave a half-maximal inhibitory concentration (IC50) of 0.102 µM.

Compound `CC(C)C[C@H](CO)Nc1nc(CC(C)c2ccc(CN3CCOCC3)cc2)nc(NS(C)(=O)=O)n1` (stereo partly drawn) [Example 95, N-(4-(((R)-1-Hydroxy-4-methylpentan-2-yl)amino)-6-(2-(4-(morpholinomethyl)phenyl)propyl)-1,3,5-triazin-2-yl)methanesulfonamide] displayed an IC50 of 0.657 µM.

For `COc1ccc(C(C)Cc2nc(N[C@@H](CO)CC(C)C)nc(NS(C)(=O)=O)n2)cc1OC` (some centres unmarked) [Example 96], the IC50 came to 0.149 µM. The same measure for `COc1ccc(C(C)Cc2nc(N[C@@H](CO)CC(C)C)nc(NS(C)(=O)=O)n2)c2cccnc12` (stereo partly drawn) [Example 97, N-(4-(((R)-1-Hydroxy-4-methylpentan-2-yl)amino)-6-(2-(8-methoxyquinolin-5-yl)propyl)-1,3,5-triazin-2-yl)methanesulfonamide]: 0.09 µM. `CCOc1ccc(C(C)Cc2nc(N[C@@H](CO)CC(C)C)nc(NS(C)(=O)=O)n2)cc1Cl` (stereo partly drawn) [Example 98, N-(4-(2-(3-Chloro-4-ethoxyphenyl)propyl)-6-(((R)-1-hydroxy-4-methylpentan-2-yl)amino)-1,3,5-triazin-2-yl)methanesulfonamide]: the IC50 turned out to be 0.427 µM. Next, `COc1cccc(C(C)Cc2nc(N[C@@H](CO)CC(C)C)nc(NS(C)(=O)=O)n2)c1F` (stereo partly drawn) [Example 99, N-(4-(2-(2-Fluoro-3-methoxyphenyl)propyl)-6-(((R)-1-hydroxy-4-methylpentan-2-yl)amino)-1,3,5-triazin-2-yl)methanesulfonamide]: 0.077 µM. `CC(C)C[C@H](CO)Nc1nc(CC(C)c2ccc3c(c2)oc(=O)n3C)nc(NS(C)(=O)=O)n1` (stereo partly drawn) [Example 100, N-(4-(((R)-1-Hydroxy-4-methylpentan-2-yl)amino)-6-(2-(3-methyl-2-oxo-2,3-dihydrobenzo[d]oxazol-6-yl)propyl)-1,3,5-triazin-2-yl)methanesulfonamide] registered an IC50 of 0.16 µM. `CC(C)C[C@H](CO)Nc1nc(CC(C)c2cccc(CN3OCCC3=O)c2)nc(NS(C)(=O)=O)n1` (stereo partly drawn) [Example 101, N-(4-(((R)-1-Hydroxy-4-methylpentan-2-yl)amino)-6-(2-(3-((3-oxoisoxazolidin-2-yl)methyl)phenyl)propyl)-1,3,5-triazin-2-yl)methanesulfonamide] came in with an IC50 of 0.542 µM. Next, `CC(C)C[C@H](CO)Nc1nc(CC(C)c2ccc(C3CCOCC3)cc2)nc(NS(C)(=O)=O)n1` (stereo partly drawn) [Example 102, N-(4-(((R)-1-Hydroxy-4-methylpentan-2-yl)amino)-6-(2-(4-(tetrahydro-2H-pyran-4-yl)phenyl)propyl)-1,3,5-triazin-2-yl)methanesulfonamide]: 0.088 µM. `CC(C)C[C@H](CO)Nc1nc(CC(C)c2cccc3cccnc23)nc(NS(C)(=O)=O)n1` (stereo partly drawn) [Example 103, N-(4-(((R)-1-Hydroxy-4-methylpentan-2-yl)amino)-6-(2-(quinolin-8-yl)propyl)-1,3,5-triazin-2-yl)methanesulfonamide] showed an IC50 of 0.017 µM.
